BindingDB's records for PubMed 28741798 (Daiichi Sankyo Co., Ltd)

Target: Histone-lysine N-methyltransferase KMT5B (Homo sapiens, UniProt Q4FZB7)
Assay: Inhibition of human SUV420H1 transcript variant 2 using Nucleosomes and [3H]SAM as substrate incubated for 30 mins to 1 hr by HotSpot kinase assay

Chain of Histone-lysine N-methyltransferase KMT5B (Q4FZB7 whole entry): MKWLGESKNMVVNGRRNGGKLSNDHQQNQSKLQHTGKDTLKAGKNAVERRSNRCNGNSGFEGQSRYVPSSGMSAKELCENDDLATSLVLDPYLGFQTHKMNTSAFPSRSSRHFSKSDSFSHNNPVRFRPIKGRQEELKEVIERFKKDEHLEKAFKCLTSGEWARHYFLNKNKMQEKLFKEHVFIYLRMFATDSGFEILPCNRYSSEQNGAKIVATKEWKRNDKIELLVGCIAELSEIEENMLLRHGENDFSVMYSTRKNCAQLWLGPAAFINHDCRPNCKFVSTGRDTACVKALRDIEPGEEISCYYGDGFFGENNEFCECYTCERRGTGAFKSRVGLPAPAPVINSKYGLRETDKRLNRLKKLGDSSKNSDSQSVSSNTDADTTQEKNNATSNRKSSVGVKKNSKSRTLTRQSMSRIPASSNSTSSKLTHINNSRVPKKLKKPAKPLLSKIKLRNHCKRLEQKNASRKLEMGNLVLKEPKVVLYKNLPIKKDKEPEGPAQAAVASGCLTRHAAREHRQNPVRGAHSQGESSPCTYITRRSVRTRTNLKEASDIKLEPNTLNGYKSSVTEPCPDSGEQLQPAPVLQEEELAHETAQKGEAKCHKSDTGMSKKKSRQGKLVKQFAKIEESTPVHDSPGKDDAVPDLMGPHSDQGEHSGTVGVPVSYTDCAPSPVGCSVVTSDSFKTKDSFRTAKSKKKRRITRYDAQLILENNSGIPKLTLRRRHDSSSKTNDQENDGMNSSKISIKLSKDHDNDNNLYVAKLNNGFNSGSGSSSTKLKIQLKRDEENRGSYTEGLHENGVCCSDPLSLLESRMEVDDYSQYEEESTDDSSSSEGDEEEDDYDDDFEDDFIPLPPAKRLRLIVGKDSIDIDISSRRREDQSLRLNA

- IC50: 1 µM
SMILES: Cc1cc(C)c(CNC(=O)c2cc(Cl)c3c(c2C)O[C@@](C)([C@H]2CC[C@H](N(C)C)CC2)O3)c(=O)[nH]1 [(2R)-7-chloro-2-[trans-4-(dimethylamino)cyclohexyl]-N-[(4,6-dimethyl-2-oxo-1,2-dihydropyridin-3-yl)methyl]-2,4-dimethyl-1,3-benzodioxole-5-carboxamide (Valemetostat)]
